The structures appear in SMILES notation. pKi: −log10 of the molar value.

The target of the first assay is T1, Cannabinoid receptor 1 (Homo sapiens, UniProt P21554). Briefly: Evaluated for binding affinity towards human Cannabinoid receptor 1 at a concentration of 20 uM.
T1 sequence (P21554 whole entry): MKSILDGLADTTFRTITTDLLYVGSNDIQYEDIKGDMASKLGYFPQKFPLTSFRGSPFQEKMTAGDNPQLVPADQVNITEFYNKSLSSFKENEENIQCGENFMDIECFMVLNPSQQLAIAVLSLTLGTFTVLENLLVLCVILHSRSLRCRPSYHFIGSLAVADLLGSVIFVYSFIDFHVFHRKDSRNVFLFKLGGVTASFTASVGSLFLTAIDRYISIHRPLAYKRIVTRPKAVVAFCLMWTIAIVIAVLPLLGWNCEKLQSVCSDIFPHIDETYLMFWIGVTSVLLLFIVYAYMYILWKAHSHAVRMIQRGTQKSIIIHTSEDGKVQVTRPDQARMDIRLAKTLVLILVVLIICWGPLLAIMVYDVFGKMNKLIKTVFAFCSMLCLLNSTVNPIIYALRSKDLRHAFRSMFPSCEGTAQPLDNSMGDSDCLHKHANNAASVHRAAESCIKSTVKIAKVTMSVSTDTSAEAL
Regarding `Cc1c(C(=O)NCCO)nn(-c2ccc(Cl)cc2Cl)c1-c1ccc(Cl)cc1`, the inhibition (as a rule, the relative decrease from the control value, in per cent) was found to be 69%.
On the same count and under the same terms, in the case of `O=C(NN1CCCCCC1)c1nc(-c2ccc(Cl)cc2)n(-c2ccc(Cl)cc2Cl)n1` it was 43%.
Turning to `CN(C)CCNC(=O)c1nc(-c2ccc(Cl)cc2Cl)n(-c2ccc(Cl)cc2)n1`, the inhibition was 49%.
On the same count and under the same terms, then `CN(C)CCNC(=O)c1cn(-c2ccc(Cl)cc2)c(-c2ccc(Cl)cc2Cl)n1`, with 48%; and `Cc1c(C(=O)NCCN(C)C)nn(-c2ccc(Cl)cc2Cl)c1-c1ccc(Cl)cc1`, with 70%.

The target in another assay is T1, Cannabinoid receptor 1. Briefly: Evaluated for binding affinity towards human Cannabinoid receptor 1.
Consider `Cc1c(C(=O)NC(C)c2ccc(Cl)cc2)nc(-c2ccc(Cl)cc2Cl)n1-c1ccc(Cl)cc1` (configuration not stated), for which the pKi (usually the negative decadic logarithm of the Ki, by convention in mol/L) was 7.48.
The compound `Cc1c(C(=O)NN2CC3CCCC3C2)nn(-c2ccc(Cl)cc2Cl)c1-c1ccc(Cl)cc1` (configuration not stated) showed a pKi of 8.30.
The same measure, in the same setting: then `O=C(NN1CCCCC1)c1cn(-c2ccc(Cl)cc2)c(-c2ccc(Cl)cc2Cl)n1`, with 7.07; and `Cc1c(C(=O)NC2CCCCC2)nn(-c2ccc(Cl)cc2Cl)c1-c1ccc(Cl)cc1`, with 7.38.
`Cc1c(C(=O)NN2CCCCCC2)nn(-c2ccc(Cl)cc2Cl)c1-c1ccc(Cl)cc1` had a pKi of 7.85.
As for `O=C(c1nc(-c2ccc(Cl)cc2)n(-c2ccc(Cl)cc2Cl)n1)N1CCN(c2cccc(C(F)(F)F)c2)CC1`, the negative-log Ki (pKi) was 7.49.
Still for that read-out and setting: in the case of `Cc1c(C(=O)Nc2ccncc2)nn(-c2ccc(Cl)cc2Cl)c1-c1ccc(Cl)cc1` it was 7.07; in that of `O=C(NC1CCc2ccccc21)c1nc(-c2ccc(Cl)cc2Cl)n(-c2ccc(Cl)cc2)n1` (configuration not stated), 7.00; in that of `Cc1c(C(=O)NCCc2ccc(F)cc2)nn(-c2ccc(Cl)cc2Cl)c1-c1ccc(Cl)cc1`, 7.04.
Still for that read-out and setting: then `O=C(NN1CCCCCC1)c1cn(-c2ccc(Cl)cc2)c(-c2ccc(Cl)cc2Cl)n1`, with 7.11; and `COc1cc(Cl)ccc1-c1nc(C(=O)NN2CC3CCCC3C2)nn1-c1ccc(Cl)cc1Cl` (configuration not stated), with 6.57.
Same read-out and setting: in the case of `Cc1c(C(=O)N(C)C2CCCCC2)nn(-c2ccc(Cl)cc2Cl)c1-c1ccc(Cl)cc1` it was 7.00.
As to `Cc1c(C(=O)NC(C)C(C)C)nn(-c2ccc(Cl)cc2Cl)c1-c1ccc(Cl)cc1` (configuration not stated), the pKi was 7.39.
On the same count and under the same terms, in the case of `O=C(NN1CC2CCCC2C1)c1nc(-c2ccc(Cl)cc2Cl)n(-c2ccc(Cl)cc2)n1` (configuration not stated) it was 6.86; in that of `N#Cc1c(C(=O)NN2CC3CCCC3C2)nc(-c2ccc(Cl)cc2Cl)n1-c1ccc(Cl)cc1` (configuration not stated), 8.05.
In the case of `CC(NC(=O)c1nc(-c2ccc(Cl)cc2Cl)n(-c2ccc(Cl)cc2)n1)c1ccc(Cl)cc1` (configuration not stated), the pKi is 7.18.
With `O=C(NC1CCCCC1)c1cn(-c2ccc(Cl)cc2)c(-c2ccc(Cl)cc2Cl)n1`, the pKi is 7.32.
Consider `O=C(NN1CC2CCCC2C1)c1nc(-c2ccc(Cl)cc2Cl)n(-c2ccc(Cl)cc2)c1Br` (configuration not stated), for which the pKi is 7.96.
With `C#Cc1c(C(=O)NN2CC3CCCC3C2)nc(-c2ccc(Cl)cc2Cl)n1-c1ccc(Cl)cc1` (configuration not stated), the pKi was 6.11.
On the same count and under the same terms, in the case of `CC1CCC(NC(=O)c2nc(-c3ccc(Cl)cc3Cl)n(-c3ccc(Cl)cc3)n2)CC1` (configuration not stated) it was 7.03; in that of `O=C(NC1CCN(Cc2ccccc2)C1)c1nc(-c2ccc(Cl)cc2Cl)n(-c2ccc(Cl)cc2)n1` (configuration not stated), 7.54.
Same read-out and setting: in the case of `O=C(NN1CC2CCCC2C1)c1cn(-c2ccc(Cl)cc2)c(-c2ccc(Cl)cc2Cl)n1` (configuration not stated) it was 7.18.

The values above are taken from ChEMBL document CHEMBL1147585, “Potent imidazole and triazole CB1 receptor antagonists related to SR141716” (Bioorg Med Chem Lett, 2004).
